Assay results taken from patent US11702419B2, “Heterocyclic compound and use thereof” (Takeda Pharmaceutical Company Limited, priority 2018, dated 2023).

How the values were obtained:
[1] = in vivo; cited from earlier work
[2] = target: T1, NMDA receptor composed of four subunits consisting of two sets of heterodimers of NR1 and NR2B (human GRIN1 and GRIN2B-expressing HEK293 cells) (Homo sapiens, UniProt Q13224); assay: NR2B Ca2+ influx assay; type: cell-based; details: 10 μM compound, glutamic acid/glycine-induced Ca2+ influx, FLIPR, read-out: inhibitory rate (10 μM compound concentration)
T1 construct: host or cells: HEK293 (tetracycline-inducible expression)
How it was run: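 HEK293 cells expressing human GRIN1/GRIN2B were induced with tetracycline (diluted to 2 µg/mL) for 2 h, then Fluo-4AM loaded (2.5 µM) in pH 7.2 buffer with 1.8 mM CaCl2. Compound at 10 µM final was preincubated 15 min at room temperature, then challenged with buffer containing 30 µM glutamate/30 µM glycine. FLIPR fluorescence was read every 3 s for 5 min, with % inhibition from cumulative signal and agonist-free wells set as 100%.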

hERG channel = target: T2, hERG channel (Homo sapiens, UniProt Q12809); assay: hERG manual patch-clamp assay; type: cell-based; details: 10 μmol/L test solution; hERG peak tail current 3 to 5 min after application, HEK293 cells
T2 construct: Medicine
Procedure: hERG Manual Patch-Clamp Assay
In order to confirm “hERG channel inhibitory activity” which the compound of the present invention has, the hERG channel inhibitory activity was evaluated using human Ether-a-go-go-Related Gene (hERG)-expressing human embryonic kidney 293 (HEK293) cells.
hERG-stably expressing HEK293 cells were purchased from University of Wisconsin-Madison Dept. Medicine. The cells were cultured in a medium prepared by adding 10% FBS (fetal bovine serum, Life Technologies Corporation), sodium pyruvate (1 mmol/L; Life Technologies Corporation), MEM Non-Essential Amino Acid (1×; Life Technologies Corporation), 100 units/mL penicillin, 100 μg/mL streptomycin (Life Technologies Corporation) and 400 μg/mL G 418 (Geneticin, Sigma-Aldrich Co. LLC.) to Minimum Essential Medium (Sigma-Aldrich Co. LLC.) at 37° C., 5% CO2. The cultured cells were detached, suspended in a medium, and seeded on a cover glass, cultured, and used in a patch-clamp assay. […]
The hERG current passing through whole cell membranes under voltage-clamp was recorded by whole-cell patch-clamp method. […] During measurement, the extracellular fluid temperature in the chamber was set at 20 to 25° C., and the hERG current was measured using patch-clamp amplifier (Axopatch-200B, Molecular Devices, LLC). The obtained electrical signal was recorded on a computer via patch-clamp record and analysis software (pCLAMP 10, Molecular Devices, LLC). The absolute value of the hERG current value (peak tail current) was calculated based on the current value when depolarizing pulse at −50 mV, 110 msec was given, and the change (inhibitory rate) in the hERG current value (peak tail current) 3 to 5 min after the application of the 10 μmol/L test solution relative to before the application was calculated.

[3] = system: NMDA receptor containing the NR2B subunit (hippocampus); assay: [3H]MK-801 binding test in vivo; design: species or system Sprague Dawley rats; details: [3H]MK-801 binding inhibitory rate, rat hippocampus
Procedure: [^3H]MK-801 Binding Test In Vivo
In order to confirm “functional antagonistic action on an NMDA receptor containing the NR2B subunit in vivo” which the compound of the present invention has, binding test was performed using tritium-labeled form of MK-801 ((5R,10S)-5-methyl-10,11-dihydro-5H-5,10-epiminodibenzo[a,d][7]annulene) ([^3H]MK-801), which is a compound capable of binding to the opening site of the NMDA receptor.
The example compound (3 mg/kg/2 mL, 0.5% MC water) or vehicle ([…], 0.5% MC water) was orally administered (p.o.) to Sprague Dawley rats (body weight 180-260 g). After a certain time (around after time-to maximum blood concentration), [^3H]MK-801 (20 μCi/kg/mL, Muromachi Kikai) was intravenously administered. After 10 min, the rats were euthanized by decapitation, and subjected to craniotomy, and the hippocampus was collected. The collected hippocampus was homogenized in 30 volumes (30 mL per 1 g tissue) ice-cooled 20 mM Hepes (pH7.5, Hampton Research) using a homogenizer (T10 basic Ultra-Turrax) for 10 sec. […] The filter was washed four times with ice-cooled saline (5 mL, Otsuka Pharmaceutical), put into a scintillation vial, and then 10 mL of liquid scintillator A (FUJIFILM Wako Pure Chemical Corporation) was added thereto, and the residual radioactivity was counted using liquid scintillation counter (ALOKA LSC-6100). Separately, the residual radioactivity in 100 μL of the homogenate before the filtration was counted in the same way. The value of [the residual radioactivity in the filter/the residual radioactivity in the 100 μL of the homogenate] was calculated as a [^3H]MK-801 binding rate to the NMDA receptor expressing in each individual hippocampus tissue. […] The difference between the percentage of [^3H]MK-801 binding rate in the group orally administered with the example compound and that in the vehicle control group (100%) was analyzed as [^3H]MK-801 binding inhibitory rate by the example compound.

[4] = in vivo; cited from earlier work; remark: listed apart in the source
[5] = rodents; number of occurrence and depth; cited from earlier work
[6] = single intravenous administration; major depression and bipolar disorder; cited from earlier work
[7] = continuous intravenous administration; cited from earlier work

T1 sequence (Q13224 27-1484, other chains not shown): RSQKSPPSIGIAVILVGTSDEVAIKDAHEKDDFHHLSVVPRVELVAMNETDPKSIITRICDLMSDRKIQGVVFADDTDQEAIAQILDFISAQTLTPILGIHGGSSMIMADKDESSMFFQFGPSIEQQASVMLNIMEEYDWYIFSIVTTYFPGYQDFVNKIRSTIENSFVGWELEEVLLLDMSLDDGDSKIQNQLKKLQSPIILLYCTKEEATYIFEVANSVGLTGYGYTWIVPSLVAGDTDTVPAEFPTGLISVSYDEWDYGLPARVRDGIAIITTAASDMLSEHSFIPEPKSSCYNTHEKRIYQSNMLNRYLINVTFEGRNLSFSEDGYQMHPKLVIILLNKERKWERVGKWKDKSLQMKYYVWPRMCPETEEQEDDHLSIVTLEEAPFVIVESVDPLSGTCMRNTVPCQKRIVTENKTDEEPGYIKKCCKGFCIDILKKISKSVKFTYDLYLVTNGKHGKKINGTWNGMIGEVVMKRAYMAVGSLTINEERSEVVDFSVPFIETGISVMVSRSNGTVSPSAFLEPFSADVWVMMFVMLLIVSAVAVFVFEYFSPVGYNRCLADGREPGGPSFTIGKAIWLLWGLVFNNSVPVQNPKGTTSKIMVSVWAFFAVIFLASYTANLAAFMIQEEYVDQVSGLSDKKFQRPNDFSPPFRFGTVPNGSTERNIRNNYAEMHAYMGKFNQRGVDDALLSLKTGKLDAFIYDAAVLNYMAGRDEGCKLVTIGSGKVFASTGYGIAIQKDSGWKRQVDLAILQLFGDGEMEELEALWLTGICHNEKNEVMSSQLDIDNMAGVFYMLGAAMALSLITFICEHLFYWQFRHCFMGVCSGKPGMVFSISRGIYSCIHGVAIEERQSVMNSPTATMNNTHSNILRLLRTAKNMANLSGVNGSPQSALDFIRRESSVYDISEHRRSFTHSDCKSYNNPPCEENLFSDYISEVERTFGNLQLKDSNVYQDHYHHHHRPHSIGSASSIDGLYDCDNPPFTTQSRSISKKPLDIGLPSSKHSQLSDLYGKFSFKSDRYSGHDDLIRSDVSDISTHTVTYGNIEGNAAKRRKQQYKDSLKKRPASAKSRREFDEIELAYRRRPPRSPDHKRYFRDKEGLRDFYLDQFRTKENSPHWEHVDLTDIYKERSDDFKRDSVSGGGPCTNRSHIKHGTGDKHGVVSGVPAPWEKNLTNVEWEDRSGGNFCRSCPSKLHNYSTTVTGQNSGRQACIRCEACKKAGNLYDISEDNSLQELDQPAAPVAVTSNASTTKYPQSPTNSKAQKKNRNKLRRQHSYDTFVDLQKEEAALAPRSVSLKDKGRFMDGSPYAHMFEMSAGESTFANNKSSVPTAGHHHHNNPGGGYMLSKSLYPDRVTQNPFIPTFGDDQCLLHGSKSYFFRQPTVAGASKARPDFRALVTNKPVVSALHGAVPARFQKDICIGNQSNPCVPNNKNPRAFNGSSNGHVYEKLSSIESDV
T2 sequence (Q12809 whole entry): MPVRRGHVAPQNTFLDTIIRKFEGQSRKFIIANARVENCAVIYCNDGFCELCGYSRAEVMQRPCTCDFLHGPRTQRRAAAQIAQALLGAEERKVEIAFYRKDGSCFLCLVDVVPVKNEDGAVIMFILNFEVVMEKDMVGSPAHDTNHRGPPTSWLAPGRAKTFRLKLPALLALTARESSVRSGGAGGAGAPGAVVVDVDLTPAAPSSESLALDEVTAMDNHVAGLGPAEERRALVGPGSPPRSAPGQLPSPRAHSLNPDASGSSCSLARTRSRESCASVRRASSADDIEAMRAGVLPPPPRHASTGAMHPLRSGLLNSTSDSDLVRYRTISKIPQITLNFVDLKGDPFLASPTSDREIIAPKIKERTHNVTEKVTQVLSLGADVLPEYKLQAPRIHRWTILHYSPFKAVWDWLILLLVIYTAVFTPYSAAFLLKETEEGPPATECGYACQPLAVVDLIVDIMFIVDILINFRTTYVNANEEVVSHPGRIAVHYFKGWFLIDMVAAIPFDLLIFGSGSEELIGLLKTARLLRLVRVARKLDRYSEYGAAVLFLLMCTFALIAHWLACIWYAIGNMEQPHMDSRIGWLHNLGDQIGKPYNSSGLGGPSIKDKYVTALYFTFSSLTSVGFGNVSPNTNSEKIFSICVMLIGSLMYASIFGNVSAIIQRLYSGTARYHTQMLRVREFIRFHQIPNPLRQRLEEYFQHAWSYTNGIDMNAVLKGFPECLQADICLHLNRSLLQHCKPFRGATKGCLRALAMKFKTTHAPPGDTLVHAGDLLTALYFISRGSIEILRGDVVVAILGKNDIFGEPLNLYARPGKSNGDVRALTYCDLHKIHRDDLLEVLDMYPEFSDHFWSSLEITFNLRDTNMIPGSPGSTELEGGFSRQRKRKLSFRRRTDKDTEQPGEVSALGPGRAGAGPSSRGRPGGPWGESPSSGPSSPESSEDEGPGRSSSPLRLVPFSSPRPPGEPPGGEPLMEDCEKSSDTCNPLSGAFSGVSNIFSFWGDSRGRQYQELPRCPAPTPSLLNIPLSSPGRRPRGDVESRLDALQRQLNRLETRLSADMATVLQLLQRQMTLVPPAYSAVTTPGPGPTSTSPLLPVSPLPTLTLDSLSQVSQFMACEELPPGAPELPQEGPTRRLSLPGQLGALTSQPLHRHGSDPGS

| SMILES | inhibition at 10 µM [2] [%] | inhibitory rate (10 μM compound concentration) (hERG channel) | inhibitory rate (3 mg/kg, p.o.) [3] [%] | further results |
| --- | --- | --- | --- | --- |
| CC12CC3CC(C)(C1)CC(N)(C3)C2 [memantine] |  |  |  | effect on behavioral and psychological symptoms of dementia [1]: partially improves behavioral and psychological symptoms of dementia |
| Cn1ccn2ncc(CNC(=O)c3cnc(OC(F)F)c(F)c3)c12 [Example 58, 6-(difluoromethoxy)-5-fluoro-N-((1-methyl-1H-imidazo[1,2-b]pyrazol-7-yl)methyl)nicotinamide] | 97 | 13.6 | 27 |  |
| CC(C(O)c1ccc(O)cc1)N1CCC(Cc2ccccc2)CC1 (stereo not drawn) [ifenprodil] |  |  |  | effect on pain threshold [4]: increase in pain threshold |
| C[C@@H](CN1CCC(Cc2ccccc2)CC1)[C@@H](O)c1ccc(O)cc1 [Ro25-6981] |  |  |  | effect on cortical spreading depression [5]: suppress the number of occurrence and the depth of cortical spreading depression |
| CNC1(c2ccccc2Cl)CCCCC1=O (stereo not drawn) [ketamine] |  |  |  | effect on depression symptom [6]: improves depression symptom accompanying major depression and bipolar disorder rapidly and in a sustained manner |
| O=C(NCc1nnn2ccccc12)c1ccc(OC(F)(F)F)c(F)c1 [Example 13, 3-fluoro-N-([1,2,3]triazolo[1,5-a]pyridin-3-ylmethyl)-4-(trifluoromethoxy)benzamide] | 96 | 33.2 | 23 |  |
| O=C(NCc1cnn2ncccc12)c1cnc(OC(F)F)c(F)c1 [Example 6, 6-(difluoromethoxy)-5-fluoro-N-(pyrazolo[1,5-b]pyridazin-3-ylmethyl)nicotinamide] | 97 | 16.5 | 33 |  |
| C[C@@H]([C@@H](O)c1ccc(O)cc1)N1CCC(O)(c2ccccc2)CC1 [CP-101,606] |  |  |  | effect on treatment resistant-depression symptom [7]: significantly improves treatment resistant-depression symptom; effect on cortical spreading depression [5]: suppress the number of occurrence and the depth of cortical spreading depression |
